Results: ChEMBL document CHEMBL3875219, “Hetero-Diels-Alder approach to Bis(indolyl)methanes” (Bioorg Med Chem, 2017)

Tests used:
[1] = test system: U-937; test: Selectivity index, ratio of IC50 for mouse S17 cells to IC50 for human U937 cells; format: functional
[2] = test system: THP-1; test: Selectivity index, ratio of IC50 for mouse S17 cells to IC50 for human THP1 cells; format: functional
[3] = Cytotoxicity against human THP1 cells assessed as reduction in cell viability after 72 hrs by MTT assay; format: functional, cell-based; conditions: THP-1, 72 h
[4] = (§1) Cytotoxicity against mouse S17 cells assessed as reduction in cell viability after 72 hrs by MTT assay; format: toxicity, cell-based; conditions: mouse, S17 cells
[5] = test system: EL4; test: Selectivity index, ratio of IC50 for mouse S17 cells to IC50 for mouse EL4 cells; format: functional
[6] = Cytotoxicity against human U937 cells assessed as cell viability at 100 uM after 72 hrs by MTT assay relative to control; format: functional; conditions: U-937, 72 h, read-out: Activity
[7] = Cytotoxicity against mouse EL4 cells assessed as reduction in cell viability after 72 hrs by MTT assay; format: functional, cell-based; conditions: EL4, 72 h
[8] = Cytotoxicity against human U937 cells assessed as reduction in cell viability after 72 hrs by MTT assay; format: functional, cell-based; conditions: U-937, 72 h
[9] = species: Mus musculus; test: as §1; format: toxicity, cell-based; conditions: s17
[10] = Cytotoxicity against mouse S17 cells assessed as cell viability at 100 uM after 72 hrs by MTT assay relative to control; format: toxicity; conditions: read-out: Activity

C/C(=N/NC(=O)OC(C)(C)C)C(c1cn(Cc2ccccc2)c2ccccc12)c1cn(Cc2ccccc2)c2ccccc12
Ratio IC50 [1]: <1 | Ratio IC50 [2]: <1 | IC50 [3]: 38.8 µM | IC50 at 72 h [4]: 7.65 µM | Ratio IC50 [5]: 1.38 | viability at 100 µM [6]: 66.6% | IC50 [7]: 5.56 µM

O/N=C(/c1ccc(Br)cc1)C(c1c[nH]c2ccc(Br)cc12)c1c[nH]c2ccc(Br)cc12
IC50 [3]: 12.2 µM | IC50 [8]: 18.6 µM | IC50 [7]: 7.65 µM

C/C(=N/NC(=O)OC(C)(C)C)C(c1c[nH]c2ccc(Br)cc12)c1c[nH]c2ccc(Br)cc12
Ratio IC50 [1]: 1.46 | Ratio IC50 [2]: 1.14 | IC50 [3]: 36.2 µM | IC50 at 72 h [4]: 41.3 µM | Ratio IC50 [5]: 1.84 | IC50 [8]: 28.3 µM | IC50 [7]: 22.5 µM

C/C(=N/NC(=O)OC(C)(C)C)C(c1c[nH]c2ccc(O)cc12)c1c[nH]c2ccc(O)cc12
Ratio IC50 [1]: <1 | Ratio IC50 [2]: 3.5 | IC50 [3]: 28.6 µM | IC50 [9]: Non-Toxic | Ratio IC50 [5]: 6.49 | IC50 [8]: 157 µM | IC50 [7]: 15.4 µM | viability at 72 h, 100 µM [10]: 48.4%

C/C(=N/NS(=O)(=O)c1ccc(C)cc1)C(c1c[nH]c2ccccc12)c1c[nH]c2ccccc12
Ratio IC50 [1]: 1.09 | Ratio IC50 [2]: 1.06 | IC50 [3]: 23.5 µM | IC50 at 72 h [4]: 25 µM | Ratio IC50 [5]: 1.32 | IC50 [8]: 22.9 µM | IC50 [7]: 18.9 µM

C/C(=N/NC(=O)OC(C)(C)C)C(c1cn(C)c2ccccc12)c1cn(C)c2ccccc12
IC50 [3]: 25.3 µM | IC50 [8]: 14.2 µM | IC50 [7]: 9.99 µM

Cc1ccc2[nH]cc(C(/C(=N\O)c3ccc(Br)cc3)c3c[nH]c4ccc(C)cc34)c2c1
Ratio IC50 [1]: 1.17 | Ratio IC50 [2]: 1.81 | IC50 [3]: 6.34 µM | IC50 at 72 h [4]: 11.5 µM | Ratio IC50 [5]: 3.56 | IC50 [8]: 9.79 µM | IC50 [7]: 3.23 µM

C/C(=N/NC(=O)OC(C)(C)C)C(c1c[nH]c2ccccc12)c1c[nH]c2ccccc12
Ratio IC50 [1]: 2 | Ratio IC50 [2]: 1.67 | IC50 [3]: 30 µM | IC50 at 72 h [4]: 50 µM | Ratio IC50 [5]: 3.27 | IC50 [8]: 25 µM | IC50 [7]: 15.3 µM

COc1ccc2[nH]cc(C(/C(=N\O)c3ccc(Br)cc3)c3c[nH]c4ccc(OC)cc34)c2c1
Ratio IC50 [1]: <1 | Ratio IC50 [2]: <1 | IC50 [3]: 22.6 µM | IC50 at 72 h [4]: 17.7 µM | Ratio IC50 [5]: 1.91 | IC50 [8]: 18.1 µM | IC50 [7]: 9.29 µM

C/C(=N/Nc1ccc([N+](=O)[O-])cc1[N+](=O)[O-])C(c1c[nH]c2ccccc12)c1c[nH]c2ccccc12
Ratio IC50 [1]: <1 | Ratio IC50 [2]: <1 | IC50 [3]: 14 µM | IC50 at 72 h [4]: 7.92 µM | Ratio IC50 [5]: 1.45 | IC50 [8]: 13.3 µM | IC50 [7]: 5.45 µM

O/N=C(/c1ccc(Br)cc1)C(c1c[nH]c2ccc(O)cc12)c1c[nH]c2ccc(O)cc12
Ratio IC50 [1]: 1.71 | Ratio IC50 [2]: 1.41 | IC50 [3]: 15.5 µM | IC50 at 72 h [4]: 21.9 µM | Ratio IC50 [5]: 1.4 | IC50 [8]: 12.8 µM | IC50 [7]: 15.6 µM

COc1cc([C@@H]2c3cc4c(cc3[C@@H](O[C@@H]3O[C@@H]5CO[C@@H](C)O[C@H]5[C@H](O)[C@H]3O)[C@H]3COC(=O)[C@H]23)OCO4)cc(OC)c1O [ETOPOSIDE]
IC50 [3]: 1.82 µM | IC50 at 72 h [4]: 10.4 µM | IC50 [8]: 1.1 µM | IC50 [7]: 4.9 µM
